Measured values from article PMC12490239, “Combining BET inhibition with SMAC mimetics restricts tumor growth and triggers immune surveillance in preclinical cancer models” (Cell Reports Medicine, 2025).

What was measured:
Assay in all cases: cells
Design in all cases: CellTiter-Glo 2.0 luminescence proliferation/viability assay, single agents, human tumour cell line panel
[1] = test system: NCI-H441; conditions: Homo sapiens, NCI-H441, 96 h; single agent; read-out: IC50 SMACm
Outline: (§1)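 Human tumour cell lines were seeded into assay plates and held at 37°C with 5% CO2 for twenty-four hours, then exposed in triplicate to rising concentrations of the SMAC mimetic, from 4.5 nM to 10 μM, with DMSO as control. After 96 h, viability was read as CellTiter-Glo2.0 luminescence to derive single-agent IC50 values.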

[2] = test system: RCM-1; conditions: Homo sapiens, RCM-1, 96 h; single agent; read-out: IC50 SMACm
Outline: as §1

[3] = test system: RERF-GC-1B; conditions: 96 h; single agent; read-out: IC50 SMACm
Outline: as §1

[4] = test system: KP-2; conditions: 96 h; single agent; read-out: IC50 SMACm
Outline: as §1

[5] = test system: LU-65; conditions: Homo sapiens, Lu-65, 96 h; single agent; read-out: IC50 SMACm
Outline: as §1

[6] = test system: PSN1; conditions: Homo sapiens, PSN1, 96 h; single agent; read-out: IC50 SMACm
Outline: as §1

[7] = test system: SNU1544; conditions: 96 h; single agent; read-out: IC50 SMACm
Outline: as §1

[8] = test system: SNU-216; conditions: SNU-216, 96 h; single agent; read-out: IC50 SMACm
Outline: as §1

[9] = test system: C32; conditions: Homo sapiens, C32, 96 h; single agent; read-out: IC50 SMACm
Outline: as §1

[10] = test system: SNU1235; conditions: 96 h; single agent; read-out: IC50 SMACm
Outline: as §1

[11] = test system: SUIT-2; conditions: SUIT-2, 96 h; single agent; read-out: IC50 SMACm
Outline: as §1

[12] = test system: SNU254; conditions: 96 h; single agent; read-out: IC50 SMACm
Outline: as §1

[13] = test system: CACO2; conditions: Homo sapiens, Caco-2, 96 h; single agent; read-out: IC50 SMACm
Outline: as §1

[14] = test system: HCT-15; conditions: Homo sapiens, HCT-15, 96 h; single agent; read-out: IC50 SMACm
Outline: as §1

[15] = test system: NCI-H838; conditions: Homo sapiens, NCI-H838, 96 h; single agent; read-out: IC50 SMACm
Outline: as §1

CN[C@@H](C)C(=O)Nc1ccc(-c2c(-c3cccnc3OC)nc3cc(C)ccn23)c(C#Cc2ccc3c(C)nccc3c2)n1 [SMACm, BI 891065]
IC50 [1]: 6.13 µM
IC50 [2]: 5.76 µM
IC50 [3]: 4.29 µM
IC50 [4]: 4.62 µM
IC50 [5]: 4.35 µM
IC50 [6]: 7.21 µM
IC50 [7]: 3.1 µM
IC50 [8]: 4.32 µM
IC50 [9]: 1.09 µM
IC50 [10]: 2.14 µM
IC50 [11]: 4.77 µM
IC50 [12]: 1.76 µM
IC50 [13]: 2.97 µM
IC50 [14]: 2.82 µM
IC50 [15]: 4.18 µM
